Patent publication US20070213359A1 (ACADIA Pharmaceuticals Inc., priority 2005, published 2007)
Read-outs that look alike come from different tables or passages of the source.

Key:
[1] = biological target: T1, Ghrelin receptor (Homo sapiens, UniProt Q92847); test: Receptor Selection and Amplification Technology (R-SAT) assay; format: cell-based; parameters: expressed in transfected cells; host or cells: NIH3T3; conditions: for Emax: read-out: RSAT Eff(%)
Target sequence in this assay (Q92847 whole entry): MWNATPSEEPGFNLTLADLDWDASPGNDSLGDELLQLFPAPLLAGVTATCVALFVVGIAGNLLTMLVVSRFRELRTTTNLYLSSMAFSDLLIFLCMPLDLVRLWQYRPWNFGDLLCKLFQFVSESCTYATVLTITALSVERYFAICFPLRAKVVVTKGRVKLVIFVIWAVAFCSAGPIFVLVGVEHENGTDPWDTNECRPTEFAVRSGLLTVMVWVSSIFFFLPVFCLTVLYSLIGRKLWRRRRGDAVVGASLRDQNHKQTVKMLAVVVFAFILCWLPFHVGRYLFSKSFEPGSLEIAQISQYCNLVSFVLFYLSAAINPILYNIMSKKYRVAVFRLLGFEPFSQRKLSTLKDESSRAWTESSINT

[2] = biological target: T2, GHSR1a receptor (Homo sapiens, UniProt Q92847); test: 125I-Ghrelin binding assay
T2 construct: expressed in transfected cells; host or cells: HEK293 (membranes)
T2 sequence (Q92847 whole entry): as above

[3] = biological target: T1, Ghrelin receptor; test: Aeg; format: cell-based
Target sequence in this assay (Q92847 whole entry): as above

[4] = biological target: T1, Ghrelin receptor; test: pIC50; parameters: expressed in transfected cells; host or cells: NIH3T3
Source text: Table printed on a drawing sheet, Figure 1
First copying reader's note: The table stands under a dose-response plot; chemical names broken over two lines at a hyphen are joined by a blank.
Target sequence in this assay (Q92847 whole entry, looked up): as the sequence (Q92847 whole entry) above

[5] = tested on: fasted, male Sprague-Dawley rats; test: Suppression of acute feeding response in fasted rats; format: in vivo, rat; conditions: intraperitoneal, 30 mg/kg
[6] = […], '—' not defined (nd used separately), read-out: RSAT pIC50 (converted)
[7] = Binding pKi, displacement of 125I-ghrelin (0.053 nM), membranes of HEK293 cells transfected with GHSR1a, Cheng-Prussoff, '—' not defined
[8] = negative logarithm of ligand concentration causing 50% inhibition of constitutive receptor response, transfected NIH3T3 cells, '—' not defined (nd used separately), read-out: RSAT pIC50 (converted)
[9] = percent inhibition at saturating ligand, normalized to reference ligand Substance P analog = 100%
[10] = displacement of 125I-ghrelin (0.053 nM), membranes of HEK293 cells transfected with GHSR1a, Cheng-Prussoff, '—' not defined, read-out: Binding pKi (converted)

Row | SMILES | IC50 [1, 6] [nM] | Emax [1] [%] | Ki [2, 7] [nM] | IC50 [1, 8] [nM] | Emax [1, 9] [%] | Ki [2, 10] [nM] | also measured
1 | COc1cccc2c(C(=O)C3CC3)cn(CCCN3CCC(Oc4ccc(F)cc4)CC3)c12 | 0.398 | 101 | 50.1 |  |  |  | IC50 [3]: 39.8 nM
2 | COc1cccc2c(C(=O)c3ccccc3)cn(CCCN3CCC(c4nc5ccccc5s4)CC3)c12 | 0.2 | 107 | 39.8 |  |  |  | IC50 [3]: 63.1 nM
3 | CCCCC1CCN(CCCn2cc(C(C)=O)c3ccccc32)CC1 [1-(1-(3-(4-butylpiperidin-1-yl)propyl)-1H-indol-3-yl)ethanone] |  |  |  |  |  |  | IC50 [4]: 158 nM; suppression of feeding [5]: Robust suppression of feeding
4 | CC(=O)c1c(C)n(CCCN2C3CCC2CC(CC(=O)c2ccc(Cl)cc2)C3)c2c(Br)cccc12 (stereo not drawn) |  |  |  | 631 | 64 | 63.1 | 
5 | CCCCC1CCN(CCCn2cc(C(=O)c3ccccc3)c3cccc(OC)c32)CC1 | 5.01 | 98 | 200 |  |  |  | 
6 | COc1cccc2c(C(=O)NCc3cccc(Cl)c3)cn(CCCN3C4CCC3CC(Oc3ccc(F)cc3)C4)c12 (stereo not drawn) | 39.8 | 152 | 158 |  |  |  | 
7 | CC(=O)c1cn(CCCN2C3CCC2CC(CCc2ccccc2)C3)c2c(C#N)cccc12 (stereo not drawn) |  | 106 |  | 7.94 |  | 39.8 | 
8 | CC(=O)c1cn(CCCN2C3CCC2CC(CC(=O)c2ccccc2)C3)c2c(C)cccc12 (stereo not drawn) |  |  |  | 0.794 | 91 | 200 | 
9 | CCCCC[C@H]1C[C@H]2CC[C@@H](C1)N2CCCn1cc(C(=O)NCc2cccc(Cl)c2)c2cccc(OC)c21 | 50.1 | 123 | 200 |  |  |  | 
10 | COc1cccc2c(C(C)=O)cn(CC(C)CN3CCCN(Cc4ccccc4Cl)CC3)c12 (stereo not drawn) |  |  |  | 10 | 123 | 100 | 
11 | COc1cccc2c(C(C)=O)cn(CCCN3CCC(c4nc5ccccc5s4)CC3)c12 [drawing 280] |  |  |  | 6.31 |  | 398 | RSAT Eff(%) [1, 9]: 128%
12 | CC(=O)c1cn(CCCN2C3CCC2CC(CCc2ccc(Cl)cc2)C3)c2ncccc12 (stereo not drawn) |  |  |  | 79.4 | 87 | 398 | 
13 | CC(=O)c1cn(CCCN2[C@@H]3CC[C@H]2C[C@@H](Oc2ccc(Cl)cc2)C3)c2ccccc12 | 398 | 107 | 7940 |  |  |  | 
14 | COc1cccc2c(C(=O)c3ccccc3)cn(CCCN3CCCN(CCc4ccccc4)CC3)c12 | 15.8 | 124 | 25.1 |  |  |  | 
15 | CC(=O)c1cn(CCCN2CCCN(Cc3ccccc3Cl)CC2)c2ncccc12 |  |  |  | 3.16 | 115 | 25.1 | 
16 | COc1cccc2c(C(C)=O)cn(CCCN3CCN(c4ncc(C(F)(F)F)cc4Cl)CC3)c12 |  |  |  | 2.51 |  | 398 | RSAT Eff(%) [1, 9]: 103%
17 | COc1cccc2c(C(=O)NCc3cccc(Cl)c3)cn(CCCN3C4CCC3CC(Oc3ccc(Cl)cc3)C4)c12 (stereo not drawn) |  |  |  | 50.1 |  | 251 | RSAT Eff(%) [1, 9]: 97%
18 | COc1cccc2c(C(=O)NCc3cccc(Cl)c3)cn(CCCN3C4CCC3CC(CC(=O)c3ccccc3)C4)c12 (stereo not drawn) | 79.4 | 104 | 200 |  |  |  | 
19 | COc1cccc2c(C(=O)NCc3cccc(Cl)c3)cn(CCCNCCOc3ccccc3)c12 | 251 | 120 | 39.8 |  |  |  | 
20 | CCCCC[C@H]1C[C@H]2CC[C@@H](C1)N2CCCn1cc(C(=O)NCc2cccc(C)c2)c2cccc(OC)c21 | 2 | 90 | 50.1 |  |  |  | 
21 | COc1cccc2c(C#N)cn(CCCN3C4CCC3CC(Oc3ccc(F)cc3)C4)c12 (stereo not drawn) |  |  |  | 15800 | 107 | 200 | 
22 | CC(=O)c1cn(CCCN2CCC(Oc3cccc(Cl)c3)CC2)c2c(Cl)cccc12 |  |  |  | 20 | 83 | 100 | 

Row | SMILES | IC50 [1, 6] [nM] | Emax [1] [%] | Ki [2, 7] [nM] | IC50 [1, 8] [nM] | Emax [1, 9] [%] | Ki [2, 10] [nM] | also measured
23 | COc1cccc2c(C#N)cn(CCCN3C4CCC3CC(Oc3ccccc3Cl)C4)c12 (stereo not drawn) |  |  |  | 100 | 114 | 631 | 
24 | CC(=O)c1cn(CCCN2CCC(Oc3ccc(Cl)cc3)CC2)c2c(C)cccc12 |  |  |  | 39.8 | 101 | 2000 | 
25 | COc1cccc2c(C(=O)NCC(C)C)cn(CCCN3C4CCC3CC(Oc3ccccc3Cl)C4)c12 (stereo not drawn) |  |  |  | 10 |  | 100 | RSAT Eff(%) [1, 9]: 116%
26 | COc1cccc2c(C#N)cn(CCCN3CCC(Oc4cccc(Cl)c4)CC3)c12 |  |  |  | 1260 | 162 | 39.8 | 
27 | CC(=O)c1cn(CCCN2CCC(Oc3ccc(Cl)cc3)CC2)c2ccccc12 |  |  |  | 126 | 104 | 2510 | 
28 | COc1cccc2c(C(=O)NCc3cccc(Cl)c3)cn(CCCN3CCC(Oc4ccc(Cl)cc4)CC3)c12 | 50.1 | 123 | 631 |  |  |  | 
29 | CCCCC1CCN(CCCn2cc(C(=O)C3CC3)c3cccc(OC)c32)CC1 | 3.98 | 95 | 398 |  |  |  | 
30 | CCCCC1CCN(CCCn2cc(C(=O)NCc3cccc(Cl)c3)c3cccc(OC)c32)CC1 |  | 94 |  |  |  |  | IC50 ([1]; RSAT pIC50): 3.98 nM; Ki ([2]; Binding pKi): 50.1 nM
31 | COc1cccc2c(C(C)=O)cn(CCCN3C4CCC3CC(Oc3ccc(Cl)cc3)C4)c12 (stereo not drawn) |  |  |  | 12.6 |  | 501 | RSAT Eff(%) [1, 9]: 113%
32 | COc1cccc2c(C(=O)NCc3cccc(C)c3)cn(CCCN3C4CCC3CC(Oc3ccc(Cl)cc3)C4)c12 (stereo not drawn) | 0.631 | 92 | 50.1 |  |  |  | 
33 | COc1cccc2c(C(C)=O)cn(CCCN3CCC(Oc4ccc(Cl)cc4)CC3)c12 [drawing 300] |  |  |  | 7.94 |  | 126 | RSAT Eff(%) [1, 9]: 129%
34 | COc1cccc2c(C(=O)NCc3cccc(Cl)c3)cn(CCCNC3Cc4ccccc4C3)c12 | 794 | 133 | 63.1 |  |  |  | 
35 | CC(=O)c1cn(CCCN2CCC(Oc3ccc(F)cc3)CC2)c2ccccc12 [drawing 551] |  |  |  | 398 |  | 2000 | RSAT Eff(%) [1, 9]: 96%
36 | CC(=O)c1cn(CCCN2CCC(C(=O)c3ccccc3)CC2)c2c(Br)cccc12 |  |  |  | 79.4 | 84 | 1580 | 
37 | COc1cccc2c(C(C)=O)cn(CCCN3CCN(c4ncccc4C(F)(F)F)CC3)c12 |  |  |  | 6.31 | 108 | 1000 | 
38 | CCc1cccc2c(C(C)=O)cn(CCCN3C4CCC3CC(CCc3ccc(Cl)cc3)C4)c12 (stereo not drawn) |  | 95 |  | 20 |  | 100 | 
39 | COc1cccc2c(C#N)cn(CCCN3C4CCC3CC(CC(=O)c3ccc(Cl)cc3)C4)c12 (stereo not drawn) |  |  |  |  | 12 | 79.4 | 
40 | COc1cccc2c(C(=O)NCc3cccc(C)c3)cn(CCCN3CCCN(Cc4ccccc4Cl)CC3)c12 | 15.8 | 119 | 79.4 |  |  |  | 
41 | CC(=O)c1cn(CCCN2CCC(Oc3ccc(Cl)cc3)CC2)c2c(Br)cccc12 |  |  |  | 3.98 | 105 | 100 | 
42 | COc1cccc2c(C(=O)c3ccccc3)cn(CCCN3CCC(Oc4ccccc4Cl)CC3)c12 | 6.31 | 79 |  |  |  | 158 | 
43 | COc1cccc2c(C(C)=O)cn(CCCN3C4CC[C@H]3C[C@@H](Oc3ccc(Cl)cc3)C4)c12 | 10 | 114 |  |  |  | 200 | 
